Test results: patent publication US7750145B2, “1-substituted-3-β-D-glucopyranosylated nitrogenous hetero-cyclic compounds and medicines containing the same” (Kissei Pharmaceutical Co., Ltd., priority 2004, dated 2010)

What was measured:
human SGLT1 = molecular target: T1, human SGLT1 (Homo sapiens, UniProt P13866); test: Inhibition of methyl-α-D-glucopyranoside uptake in COS-7 cells expressing human SGLT1; type: cell-based; conditions: 14C α-MG uptake, 1 mM α-MG, transfected COS-7 cells, 1 hour at 37° C.; read-out: hSGLT1 IC50
T1 construct: expressed in transfected cells; host or cells: COS-7 cells, transient lipofection of pcDNA3.1(-) vector
T1 sequence (P13866 1-664): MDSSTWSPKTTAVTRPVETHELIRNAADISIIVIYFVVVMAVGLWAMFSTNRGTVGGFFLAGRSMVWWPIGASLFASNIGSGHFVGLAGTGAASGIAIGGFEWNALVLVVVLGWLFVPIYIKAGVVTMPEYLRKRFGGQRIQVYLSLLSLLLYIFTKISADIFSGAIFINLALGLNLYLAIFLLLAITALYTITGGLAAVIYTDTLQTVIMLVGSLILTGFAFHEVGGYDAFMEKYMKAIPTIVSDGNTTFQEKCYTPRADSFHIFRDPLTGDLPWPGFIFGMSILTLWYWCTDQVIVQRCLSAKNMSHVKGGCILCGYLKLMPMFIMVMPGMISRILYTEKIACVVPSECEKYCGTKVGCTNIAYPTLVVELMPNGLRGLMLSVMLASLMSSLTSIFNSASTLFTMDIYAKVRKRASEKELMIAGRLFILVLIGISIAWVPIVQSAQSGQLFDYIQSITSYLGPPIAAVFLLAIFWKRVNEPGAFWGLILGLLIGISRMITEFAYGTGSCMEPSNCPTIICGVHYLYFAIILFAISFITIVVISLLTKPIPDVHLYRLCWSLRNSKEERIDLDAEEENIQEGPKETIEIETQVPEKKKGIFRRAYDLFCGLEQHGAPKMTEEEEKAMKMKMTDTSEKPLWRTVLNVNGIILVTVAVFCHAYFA
Procedure: (§1) Assay for Inhibitory Effects on Human SGLT Activity
1) Cloning and Construction of the Vector Expressing Human SGLT1
(§2) The cDNA library was prepared for PCR amplification by reverse transcription from total RNA derived from human small intestine (Ori gene) using oligo-dT as a primer. Using this cDNA library as a template, the DNA fragment coding 1 to 2005 bp of human SGLT1 (ACCESSION: M24847), which was reported by Hediger et al., was amplified by PCR method and inserted into the multi-cloning site of pcDNA3.1(−) (Invitrogen). The DNA sequence inserted was perfectly matched to the previously reported sequence.
(§3) 3) Preparation of the Cells Expressing Human SGLT1 or SGLT2 […]
(§4) A mixture of non-labeled (Sigma) and ^14C-labeled α-MG (Amersham Pharmacia Biotech) was added to the uptake buffer (pH 7.4; containing 140 mM sodium chloride, 2 mM potassium chloride, 1 mM calcium chloride, 1 mM magnesium chloride, 10 mM 2-[4-(2-hydroxyethyl)-1-piperazinyl]ethane sulfonic acid and 5 mM tris(hydroxymethyl)aminomethane) at the final concentration of 1 mM. […] Radioactivity was measured by means of micro-scintillation counter TopCount (Packard). One hundred % was set to the difference between the uptake in the control group and the basal uptake, and the uptake of methyl α-D-glucopyranoside at each drug concentration was calculated. […]

human SGLT2 = molecular target: T2, human SGLT2 (Homo sapiens, UniProt P31639); test: Inhibition of methyl-α-D-glucopyranoside uptake in COS-7 cells expressing human SGLT2; type: cell-based; conditions: 14C α-MG uptake, 1 mM α-MG, transfected COS-7 cells, 1 hour at 37° C.; read-out: hSGLT2 IC50
T2 construct: expressed in transfected cells; host or cells: COS-7 cells, transient lipofection of pcDNA3.1(-) vector
T2 sequence (P31639 1-672): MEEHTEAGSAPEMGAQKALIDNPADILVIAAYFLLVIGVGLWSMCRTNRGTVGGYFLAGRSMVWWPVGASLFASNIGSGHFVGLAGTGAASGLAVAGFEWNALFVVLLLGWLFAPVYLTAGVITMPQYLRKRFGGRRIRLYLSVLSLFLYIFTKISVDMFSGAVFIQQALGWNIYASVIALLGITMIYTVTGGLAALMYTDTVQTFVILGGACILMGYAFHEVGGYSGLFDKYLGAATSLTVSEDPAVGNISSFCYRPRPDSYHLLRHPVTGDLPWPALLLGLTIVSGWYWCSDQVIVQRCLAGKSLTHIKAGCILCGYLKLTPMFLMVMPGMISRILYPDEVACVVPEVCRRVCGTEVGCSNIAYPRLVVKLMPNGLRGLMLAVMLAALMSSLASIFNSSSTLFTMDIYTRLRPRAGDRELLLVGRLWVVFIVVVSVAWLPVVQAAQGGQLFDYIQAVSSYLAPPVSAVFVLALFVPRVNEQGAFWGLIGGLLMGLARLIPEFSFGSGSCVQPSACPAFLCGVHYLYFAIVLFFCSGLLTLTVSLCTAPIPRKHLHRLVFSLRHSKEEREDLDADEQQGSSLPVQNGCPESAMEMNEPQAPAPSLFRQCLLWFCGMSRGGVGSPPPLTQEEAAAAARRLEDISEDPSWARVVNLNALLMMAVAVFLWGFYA
Procedure: as §1
2) Cloning and Construction of the Vector Expressing Human SGLT2
as §2, with “human kidney” for “human small intestine”, “coding 2” for “coding 1”, “to 2039” for “to 2005”, “human SGLT2” for “human SGLT1”, “(ACCESSION: M95549, M95299),” for “(ACCESSION: M24847),”, “by R. G. Wells” for “by Hediger”
as §3, §4

Row | IC50 (human SGLT1) | IC50 (human SGLT2) | SMILES
1 | 83 nM |  | COc1ccc(Cn2cc([C@@H]3O[C@H](CO)[C@@H](O)[C@H](O)[C@H]3O)c3cccc(C)c32)cc1 [Example 6]
2 |  | 6 nM | COc1ccc(Cn2cc([C@@H]3O[C@H](CO)[C@@H](O)[C@H](O)[C@H]3O)c3cc(C)ccc32)cc1 [Example 8]
